Reference: patent publication US7569695B2, “Dyes for the detection or quantification of desirable target molecules” (Enzo Life Sciences, Inc., priority 2005, dated 2009)

Assays:
[1] = test system: 78 bp amplicon from the anti-sense C construct; assay: Amplification of nucleic acids in the presence of dye using a standard PCR machine (Example 34); format: biochemical; settings: for amplicon synthesis (gel analysis, FIG. 2): 20 cycles
Method: The experiment shown in Example 33 was repeated using a standard PCR machine for synthesis to see if the effects observed in Example 33 was dependent upon the rapid heating and cooling steps used in the Light Cycler.
A master mixture was made up of: • 500 µl of 2× PCR mix described in example 33 • 20 µl of 25 mM MgCl2 • 175 µl of DEPC treated H2O • 10 ul of 1 u/l ung (Epicentre) • 10 µl of 10 mg/ml BSA (New England Biolabs, Beverly, Mass.) • 10 l Taq polymease (Perkin Elmer)+10 µl of TaqStart (Clontech) PCR conditions were 2.5 µl of target template+2.0 l of dye was added to 15.5 µl of Master mixture incubated at 45° C. for 10 minutes and then amplified using cycles of: • a) 94° C. for 30 seconds • b) 65° C. for 30 seconds • c) 72° C. for 1 minute
A duplicate set of samples was amplified with one set being taken out after 20 cycles of amplification and the second set undergoing 40 cycles. […] The other effect previously observed was also seen, i.e. non-target amplicon synthesis seen in the no Dye reaction (lane 1) was reduced with the 1:200 dilution of SYBR Green and the 1:10 dilution of Dye 109 again repeating the results of Example 33.

[2] = test system: 78 bp amplicon of the anti-sense C construct; assay: Amplification on the Light Cycler in the presence of Dye 122 and 109a, 19 cycles (Example 35); format: biochemical
Source text: A target template was amplified on the Light Cycler (Roche) in the presence of various amounts of SYBR Green and Dye 122 from Example 32. In addition, a byproduct from the silica gel chromatography of Dye 109 in step (g) of Example 14 was also used. This compound is believed to have a single protonation of one of the amines of Dye 109 and as such will be termed Dye 109a. The stock of Dye 122 was OD=200 measured at 488 nm and the stock of Dye 109a was OD=200 measured at 498 nm. The template was a 1:50,000 dilution of the 78 bp amplicon of the anti-sense C construct described previously. • A master-mixture was made up of: • 350 µl of 2×PCR mix described in Example 33 • 14 l of 25 mM MgCl2 • 175.0 l of DEPC treated H2O • 7 l of 10 mg/ml BSA (New England Biolabs, Beverly, Mass.) • 7 l Taq polymease (Perkin Elmer)+7 l of TaqStart (Clontech)
2.0 l of target template+2.0 l of various dye dilutions were added to 16 µl of Master mixture, and then amplified as described previously in Example 33 except that the incubation at 45° C. for 10 minutes was eliminated since ung was not used for this series of amplifications. The amplification was stopped after 19 cycles. The results of this series of amplifications are seen in FIG. 3. […] For Dye 109a, similar features were seen where 1:10 was inhibitory (lane 18) and 1:30 was optimal (lanes 19 and 20).

CCCN(CCCN(C)C)c1cc(/C=C2/Sc3ccccc3N2C)c2ccccc2[n+]1-c1ccccc1 [SYBR Green, reference compound]
amplicon synthesis (gel analysis, FIG. 2) ([1]; 1:200 dilution of SYBR Green, lanes 5 and 6): a single discrete band | amplicon synthesis (gel analysis, FIG. 2) ([1]; all other SYBR Green dilutions): no synthesis was evident | non-target amplicon synthesis compared to the no Dye reaction ([1]; 40 cycles, 1:200 dilution of SYBR Green): reduced | amplification (gel analysis, FIG. 3) ([2]; 1:800 dilution of SYBR Green, lanes 4 and 5): best amplification | amplification (gel analysis, FIG. 3) ([2]; SYBR Green dilutions on either side of 1:800): sharp drop off
